Converted amounts (≈) assume the structure as drawn.
Experiments:
Assay type in all cases: in vivo
johnsongrass [1] = experiment: Upland foliar application test by mixed formulations (Test 7); conditions: Sorghum halepense, 720 h, applied alone, 30th day, read-out: Herbicidal effects (%) Johnsongrass Ea; for pest or weed control at 300 g/ha: 0.3 kg/ha
In short: (§1)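 Foliar spray of two-compound mixed emulsion, diluted with water, at 5 l per are via ULV sprayer onto weeds at 2–3 leaf stage in upland soil pots, greenhouse. Effect observed 30 days after spraying. Measured mixture activity (Ea) compared with Colby expected value (Ec) derived from single-ingredient growth inhibition rates.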

redroot pigweed [2] = experiment: as above; conditions: Amaranthus retroflexus, 720 h, applied alone, 0.3 kg/ha, 30th day, read-out: Herbicidal effects (%) Redrood pigweed Ea
In short: as §1

morningglories = experiment: as above; conditions: Ipomoea, 720 h, applied alone, 30th day, read-out: Herbicidal effects (%) Morningglory Ea; for pest or weed control at 300 g/ha: 0.3 kg/ha
In short: as §1

green foxtail [3] = experiment: as above; conditions: applied alone, 30th day; for pest or weed control at 300 g/ha / Herbicidal effects (%) Green foxtail Ea: 0.3 kg/ha
In short: as §1

barnyardgrass [4] = experiment: as above; conditions: Echinochloa crus-galli, 720 h, applied alone, 30th day, read-out: Herbicidal effects (%) Barnyardgrass Ea; for pest or weed control at 300 g/ha: 0.3 kg/ha
In short: as §1

bulrush = experiment: Treatment of soil under submerged condition, pre-emergence (Test 4); conditions: 30 g ai/a granule, 30 days later
In short: (§2)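 First, weed seeds or tubers are sown in soil kept submerged. Next, two pairs of rice seedlings at the 2–3 leaf stage are transplanted per pot and kept in a greenhouse. After one day, before weeds emerge, a granular formulation is applied; damage and injury are rated after 30 days.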

barnyardgrass [5] = experiment: as above; conditions: 30 g ai/a granule, 30 days later
In short: as §2

Sagittaria pygmaea = experiment: as above; conditions: 30 g ai/a granule, 30 days later
In short: as §2

cotton = experiment: Upland soil application test (Test 2), crop injury; conditions: 30 g ai/a, soil spray before emergence, 30 days later
In short: (§3)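 Damage was graded 30 days after treatment by comparing air-dried plant weight with that of plants in untreated pots. Test compound, given as a diluted wettable powder, had been sprayed on the soil surface one day after sowing, before any weeds emerged.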

peanut = experiment: Upland soil application test (Test 2), crop injury; conditions: 30 g ai/a, soil spray before emergence, 30 days later
In short: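 Weeds are grown from seed incorporated in upland field soil under greenhouse conditions and treated pre-emergence, one day after sowing, with a water-diluted wettable powder of each compound. Effect is scored after 30 days from air-dried weight relative to untreated pots.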

soybean = experiment: Upland soil application test (Test 2), crop injury; conditions: 30 g ai/a, soil spray before emergence, 30 days later
In short: as §3

common lambsquarters = experiment: Upland soil application test (Test 2); conditions: 30 g ai/a, soil spray before emergence, 30 days later
In short: (§4)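 Soil-surface application of water-diluted wettable powder at 10 l per are, made one day after seeding and ahead of weed emergence. Plants stayed in the greenhouse for 30 days; injury was rated by air-dried weight versus untreated pots.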

foxtail meadow = experiment: Upland soil application test (Test 2); conditions: 30 g ai/a, soil spray before emergence, 30 days later
In short: as §4

johnsongrass [6] = experiment: Upland soil application test (Test 2); conditions: 30 g ai/a, soil spray before emergence, 30 days later
In short: as §4

redroot pigweed [7] = experiment: Upland soil application test (Test 2); conditions: 30 g ai/a, soil spray before emergence, 30 days later
In short: as §4

large crabgrass = experiment: Upland soil application test (Test 2); conditions: 30 g ai/a, soil spray before emergence, 30 days later
In short: as §4

green foxtail [8] = experiment: Upland soil application test (Test 2); conditions: 30 g ai/a, soil spray before emergence, 30 days later
In short: as §4

barnyardgrass [9] = experiment: Upland soil application test (Test 2); conditions: 30 g ai/a, soil spray before emergence, 30 days later
In short: as §4

narrowleaf waterplantain = experiment: Petri dish test (Test 6); conditions: 336 h; seeds on filter paper, 25° C., 14 days; read-out: I80 (ppm)
In short: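 Narrowleaf waterplantain seeds placed on filter paper pre-treated with compound in acetone (solvent air-dried) in 9 cm Petri dishes with 10 ml water, grown at 25° C in light. Growth was scored after fourteen days as degree of damage against an untreated group.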

[10] = Setaria viridis, 720 h, read-out: Herbicidal effects (%) Green foxtail Ea

Row | SMILES | pest or weed control at 300 g/ha (johnsongrass [1]) | pest or weed control at 300 g/ha (redroot pigweed [2]) | pest or weed control at 300 g/ha (morningglories) | pest or weed control at 300 g/ha (green foxtail [3]; [10]) | pest or weed control at 300 g/ha (barnyardgrass [4]) | Herbicidal effects Bulrush (bulrush) | Herbicidal effects Barnyardgrass (barnyardgrass [5]) | Herbicidal effects Sagittaria Pygmaea (Sagittaria pygmaea) | Injury Cotton (cotton) | Injury Peanut (peanut) | Injury Soybean (soybean) | Herbicidal effects Common lambsquarters (common lambsquarters) | Herbicidal effects Foxtail meadow (foxtail meadow) | Herbicidal effects Johnsongrass (johnsongrass [6]) | Herbicidal effects Redroot pigweed (redroot pigweed [7]) | Herbicidal effects Large crabgrass (large crabgrass) | Herbicidal effects Green foxtail (green foxtail [8]) | Herbicidal effects Barnyardgrass (barnyardgrass [9]) | IC80 (narrowleaf waterplantain) | Herbicidal effects (%) Green foxtail Ea (green foxtail [3]) | other results
1 | COc1cc(OC)nc(Oc2ccccc2C=NOCC=Cc2ccccc2Cl)n1 [Compound No. 27] | 30% | 50% | 10% | 30% | 50% | 4 (6-10 (Severe damages)) | 5 (0-5 (Death)) | 4 (6-10 (Severe damages)) | 0 (91-100 (No damages)) | 0 (91-100 (No damages)) | 0 (91-100 (No damages)) | 4 (6-10 (Severe damages)) | 5 (0-5 (Death)) | 5 (0-5 (Death)) | 5 (0-5 (Death)) | 5 (0-5 (Death)) | 5 (0-5 (Death)) | 4 (6-10 (Severe damages)) | 2 µg/mL (≈ 4.7 µM) | – | –
2 | COc1cc(OC)nc(Oc2ccccc2C=NOCC=Cc2ccccc2C)n1 [Compound No. 39] | 50% | 50% | 10% | 50% | 50% | 4 (6-10 (Severe damages)) | 5 (0-5 (Death)) | 4 (6-10 (Severe damages)) | 0 (91-100 (No damages)) | 0 (91-100 (No damages)) | 0 (91-100 (No damages)) | 4 (6-10 (Severe damages)) | 5 (0-5 (Death)) | 5 (0-5 (Death)) | 5 (0-5 (Death)) | 5 (0-5 (Death)) | 5 (0-5 (Death)) | 4 (6-10 (Severe damages)) | 2 µg/mL (≈ 4.93 µM) | – | –
3 | COc1cc(OC)nc(Oc2ccccc2C=NOCC=C(C)C)n1 [Compound No. 7] | 40% | 30% | 10% | 50% | 30% | 4 (6-10 (Severe damages)) | 5 (0-5 (Death)) | 5 (0-5 (Death)) | 0 (91-100 (No damages)) | 0 (91-100 (No damages)) | 0 (91-100 (No damages)) | 4 (6-10 (Severe damages)) | 5 (0-5 (Death)) | 5 (0-5 (Death)) | 4 (6-10 (Severe damages)) | 5 (0-5 (Death)) | 5 (0-5 (Death)) | 5 (0-5 (Death)) | 17 µg/mL (≈ 49.5 µM) | – | –
4 | COc1cc(OC)nc(Oc2ccccc2C=NOCC=Cc2ccc(Cl)cc2Cl)n1 [compound 30] | 10% | 40% | 0% | 20% | 40% | 4 (6-10 (Severe damages)) | 5 (0-5 (Death)) | 5 (0-5 (Death)) | 0 (91-100 (No damages)) | 0 (91-100 (No damages)) | 0 (91-100 (No damages)) | 4 (6-10 (Severe damages)) | 5 (0-5 (Death)) | 5 (0-5 (Death)) | 5 (0-5 (Death)) | 5 (0-5 (Death)) | 5 (0-5 (Death)) | 5 (0-5 (Death)) | 2 µg/mL (≈ 4.34 µM) | 20% | –
5 | COc1cc(OC)nc(Oc2ccccc2C=NOCC=Cc2ccccc2)n1 [Compound No. 9] | – | 50% | 0% | 70% | 50% | 4 (6-10 (Severe damages)) | 5 (0-5 (Death)) | 5 (0-5 (Death)) | 0 (91-100 (No damages)) | 0 (91-100 (No damages)) | 0 (91-100 (No damages)) | 4 (6-10 (Severe damages)) | 5 (0-5 (Death)) | 5 (0-5 (Death)) | 5 (0-5 (Death)) | 5 (0-5 (Death)) | 5 (0-5 (Death)) | 5 (0-5 (Death)) | 2 µg/mL (≈ 5.11 µM) | 70% | –
6 | COc1cc(OC)nc(Oc2ccccc2C=NOC2CCCCC2)n1 [Compound No. 3] | – | – | – | – | – | 4 (6-10 (Severe damages)) | 4 (6-10 (Severe damages)) | 5 (0-5 (Death)) | 0 (91-100 (No damages)) | 0 (91-100 (No damages)) | 0 (91-100 (No damages)) | 3 (11-40 (Medium damages)) | 3 (11-40 (Medium damages)) | 4 (6-10 (Severe damages)) | 3 (11-40 (Medium damages)) | 3 (11-40 (Medium damages)) | 4 (6-10 (Severe damages)) | 3 (11-40 (Medium damages)) | 100 µg/mL (≈ 280 µM) | – | pest or weed control at 1000 g/ha (johnsongrass [1]; 1 kg/ha): 40%; pest or weed control at 1000 g/ha (morningglories; 1 kg/ha): 0%; pest or weed control at 1000 g/ha (green foxtail [3]; Setaria viridis, 720 h, 1 kg/ha, read-out: Herbicidal effects (%) Green foxtail Ea): 20%; pest or weed control at 1000 g/ha (barnyardgrass [4]; 1 kg/ha): 40%

From patent US5053070A, “Pyrimidine derivatives, preparation processes thereof, herbicide containing the same, and herbicidal compositions containing the same along with other active ingredient” (Mitsui Toatsu Chemicals, Incorporated, priority 1988, dated 1991)
